Here are results for one molecule from patent US7081449B2, “Pyrido[2,3-d]pyrimidine and pyrimido[4,5-d]pyrimidine nucleosides” (Valeant Research & Development, priority 2000, dated 2006).

Common to all, as to format: cell-based
Assay [1] deals with Breast: MCF 7, NCI/ADR-RES, MDA-MB-435, BT-549, T-47D. In words: Determination of EC50 in cancer cells, breast. The note with it: Breast tumor cell lines; incubated at least 24 hours. Here is the method: (§1) Cancer cells were incubated with 4-amino-5-oxo-8-(β-D-ribofuranosyl)pyrido[2,3-d]pyrimidine at various concentrations for a period of at least 24 hours and EC50 was determined. Table 1 gives in vitro activity of 4-amino-5-oxo-8-(β-D-ribofuranosyl)pyrido[2,3-d]pyrimidine in nM concentrations.

Another assay has as its system Prostate: PC-3, DU-145. In words: Determination of EC50 in cancer cells, prostate. The note with it: Homo sapiens, Prostate tumor cell lines, incubated at least 24 hours. Here is the method:
as §1

Assay [2] relates to Kidney: 786-0, A498, ACHN, CAKI-1, RXF 393, UO-31. In words: Determination of EC50 in cancer cells, kidney. The following applies: Kidney tumor cell lines; incubated at least 24 hours. Here is the method: as §1
Assay [3] has as its system Ovarian: IGROV1, OVCAR-3, OVCAR-4, OVCAR-5, SK-OV-3. In words: Determination of EC50 in cancer cells, ovarian. The following applies: Ovarian tumor cell lines; incubated at least 24 hours. Here is the method:
as §1

For assay [4], the system named is Melanoma: LOX IM VI, MALME-3M, M14, SK-MEL-2, SK-MEL-28, ACC-257, UACC-62. Kind of assay: Determination of EC50 in cancer cells, melanoma. The following applies: Melanoma cell lines; incubated at least 24 hours. Here is the method: as §1
Assay [5] has as its system CNS: SF-268, SF-295, SF-539, SNB-19, SNB-75, U251. Kind of assay: Determination of EC50 in cancer cells, CNS. The note with it: CNS tumor cell lines; incubated at least 24 hours. Here is the method: as §1
Assay [6] relates to Colon: SW-620, KM 12, HT29, HCT-15, CHCT-116, HCC-2998, COLO-205. Kind of assay: Determination of EC50 in cancer cells, colon. The following applies: Colon tumor cell lines; incubated at least 24 hours. Here is the method:
as §1

The subject of assay [7] is Lung: NCI-H522, NCI-H460, NCI-H322M, NCI-H23, HOP-92, HOP-62, EKVX, A549. Kind of assay: Determination of EC50 in cancer cells, lung. The following applies: Lung tumor cell lines; incubated at least 24 hours. Here is the method: as §1
The test system of assay [8] is Leukemia: SR, RPMI 8226, MOLT-4, K-562, HL-60, CCRF-CEM. Kind of assay: Determination of EC50 in cancer cells, leukemia. The note with it: Leukemia cell lines; incubated at least 24 hours. Here is the method: as §1
In assay [9] the test system is Liver: PLC/PRF5, Hep3B, Huh7. In words: Determination of EC50 in cancer cells, liver. The note with it: Liver tumor cell lines; incubated at least 24 hours. Here is the method: as §1
Another assay relates to Pancreas: PaCa-2, PANC-1. Kind of assay: Determination of EC50 in cancer cells, pancreas. The note with it: Pancreas tumor cell lines; incubated at least 24 hours. Here is the method: as §1
Assay [10] has as its system melanoma B16 and 140 cells, Leukemia cells (K562, M), and colon HT-29 cells. In words: Anti-clonogenic activity in various cancer cells. The note with it: FIG. 3; compared against Ecyd and Gemzar. Here is the method:
To determine the anti-clonogenic activity of contemplated compounds in various cancer cells experiments were conducted. […] Here again, 4-amino-5-oxo-8-(β-D-ribofuranosyl)pyrido[2,3-d]pyrimidine was used as a representative compound of contemplated compounds and compared against Ecyd and Gemzar.

A further assay relates to NB4 cells (Leukemia). Kind of assay: Induction of apoptosis, histone-DNA ELISA. The following applies: FIGS. 4A and 4B. Here is the method: (§2) In order to determine how contemplated compounds interact with cancer cells, NB4 cells (Leukemia) and Prostate 81 (prostate cancer cells) cells were incubated with 4-amino-5-oxo-8-(β-D-ribofuranosyl)pyrido[2,3-d]pyrimidine, Ecyd, and Gemzar, and apoptosis was monitored by histone-DNA ELISA.
In general terms: In an ELISA, binding on a coated surface is turned into a signal by an enzyme label.

Assay [11] has as its system Prostate 81 (prostate cancer cells). Kind of assay: Induction of apoptosis, histone-DNA ELISA. The following applies: Prostate 81 cells, FIGS. 4A and 4B. Here is the method:
as §2

Another assay relates to K562 cells. In words: Inhibition of RNA synthesis, H^3-Uridine incorporation. The note with it: various time periods and concentrations, FIG. 5. The source says:
RNA synthesis was monitored in K562 cells using H^3-Uridine incorporation following a general protocol as outlined below.

The next assay has as its system RNA Polymerase I. Kind of assay: RNA Polymerase I dependent RNA synthesis (28S and 18S rRNA processing). The following applies: FIG. 6. Here is the method:
(§3) To further investigate the influence of contemplated compounds (here again represented by 4-amino-5-oxo-8-(β-D-ribofuranosyl)pyrido[2,3-d]pyrimidine) on RNA synthesis dependent on RNA Polymerase I, II, and III, experiments were conducted.

Another assay deals with RNA Polymerase III. Kind of assay: RNA Polymerase III dependent RNA synthesis. The note with it: FIG. 6. Here is the method: as §3
In another assay the test system is RNA Polymerase II. Kind of assay: RNA Polymerase II dependent RNA synthesis. The note with it: FIG. 7. Here is the method: as §3
For a further assay, the system named is ERK. Kind of assay: MEK-ERK phosphorylation, autoradiograph, NB4 leukemic cells. The note with it: FIG. 8. Here is the method: (§4) To investigate the possibility of activation of the MEK-ERK signal transduction pathway by contemplated compounds an experiment was conducted. […] Consequently, it is contemplated that the compounds according to the inventive subject matter may induce apoptosis through activation of MEK (which can be abolished by inhibitors of the MEK-ERK pathway).

Another assay concerns MEK. The assay is described as above. The following applies: FIG. 8. Here is the method: as §4
A further assay has as its system Raf. The description is as above. The following applies: FIG. 8. Here is the method:
as §4

`Nc1ncnc2c1c(=O)ccn2[C@@H]1O[C@H](CO)[C@@H](O)[C@H]1O` [4-amino-5-oxo-8-(β-D-ribofuranosyl)pyrido[2,3-d]pyrimidine]: the EC50 (usually the concentration giving half of the maximal effect) was determined as 18 nM in [1]; 19 nM in the assay on Prostate: PC-3, DU-145; 44 nM in assay [2]; 21 nM in assay [3]; 30 nM in assay [4]; 125 nM in assay [5]. Further, the EC50 in assay [6] came out at 16 nM; in assay [7] it was 68 nM; in assay [8], 34 nM; in assay [9], 288 nM; in the assay on Pancreas: PaCa-2, PANC-1, 188 nM. In [10], the anti-clonogenic activity entry was “significant anti-clonogenic activity”. The induction of apoptosis result (in the assay with NB4 cells (Leukemia); in assay [11]) was “induce apoptosis in a dose dependent manner” in each case. In addition, the “inhibition of RNA synthesis” value in the assay on K562 cells is “inhibition of RNA synthesis”. Further, the “inhibition of processing of 28S and 18S rRNA” value with RNA Polymerase I is “may inhibit processing of 28S and 18S rRNA”. Besides, the “inhibition of RNA Polymerase III” value with RNA Polymerase III is “fail to significantly inhibit RNA Polymerase III”. The “inhibition of RNA-Polymerase II dependent RNA synthesis” value in the assay on RNA Polymerase II is given as “inhibit RNA-Polymerase II dependent RNA synthesis in a concentration dependent manner”. Besides, in the assay with ERK, the “phosphorylation of ERK” value is “phosphorylation of MEK and ERK”. Also, the “phosphorylation of MEK” value in the assay on MEK is given as “enhance phosphorylation of MEK”. Further, the “phosphorylation of Raf” value with Raf is recorded as “do not enhance phosphorylation of Raf”.
